In brackets after ≈: the same amount, converted by molar mass. Activity calls are given as the source filed them. The rule behind the calls is not given here.
What was measured:
Staphylococcus aureus [1] = assay: Additive antibacterial activity against Staphylococcus aureus assessed as fractional inhibitory concentration index in presence of ciprofloxacin incubated for 18 hrs by checkerboard method; type: functional
Cell membrane [2] = assay: Induction of cell membrane permeability in Staphylococcus aureus assessed as agglutination with leaked contents at 2 times MIC measured after 2 hrs by SEM analysis; type: subcellular
Staphylococcus aureus [3] = assay: Additive antibacterial activity against Staphylococcus aureus assessed as fractional inhibitory concentration index in presence of polymyxin B incubated for 18 hrs by checkerboard method; type: functional
Klebsiella pneumoniae [4] = assay: Synergistic antibacterial activity against Klebsiella pneumoniae assessed as fractional inhibitory concentration index in presence of polymyxin B incubated for 18 hrs by checkerboard method; type: functional
Cell membrane [5] = assay: Induction of cell membrane permeability in Staphylococcus aureus assessed as rupture of bacteria with leaked contents at 2 times MIC measured after 30 mins by SEM analysis; type: subcellular
Pseudomonas aeruginosa [6] = assay: Antibacterial activity against Pseudomonas aeruginosa ATCC 27853 in presence of 150 mM NaCl; type: functional, organism-based
Klebsiella pneumoniae [7] = assay: In vivo antibacterial activity against Klebsiella pneumoniae ATCC 700603 infected in male Balb/c mouse lung infection model assessed as reduction in crumpling alveoli at 10 mg/kg, ip measured after 24 hrs by H and E staining based analysis; type: functional, organism-based
[8] = Acute toxicity in male balb/c mouse assessed as mortality at 63.2 to 100 mg/kg, ip measured after 7 days by karber method; type: organism-based; settings: in vivo, 168 h, dose 63.2-100 mg/kg, time 7 day
Cell membrane [9] = assay: Induction of Inner membrane permeabilization in Escherichia coli ML-35 ATCC […] at 2 times MIC measured every 5 mins for 120 mins by ONPG dye based assay; type: subcellular
[10] = Acute toxicity in male balb/c mouse assessed as renal necrosis at 81.28 mg/kg, ip by H and E staining based analysis; type: organism-based; settings: in vivo
Escherichia coli [11] = assay: Antimicrobial activity against Escherichia coli at 2 times MIC in presence of LPS at 64 uM preincubated for 1 hr followed by bacterial addition and measured after 6 hrs by LPS competitive inhibition assay; type: functional, organism-based; settings: time 7.0 hrs
[12] = Acute toxicity in male balb/c mouse assessed as hepatocyte necrosis at 81.28 mg/kg, ip by H and E staining based analysis; type: organism-based; settings: in vivo
Klebsiella pneumoniae [13] = assay: Bactericidal activity against Klebsiella pneumoniae ATCC 700603 assessed as bacterial eradication by measuring bacterial counts at 2 times MIC measured after 30 mins by Time killing assay relative to control; type: functional; settings: 0.5 h
Staphylococcus aureus [14] = assay: Antibacterial activity against Staphylococcus aureus ATCC 25923 in presence of 150 mM NaCl; type: functional, organism-based
Klebsiella pneumoniae [15] = assay: In vivo antibacterial activity against Klebsiella pneumoniae ATCC 700603 infected in male Balb/c mouse lung infection model assessed as reduction in serous exudation of alveolar cavities at 10 mg/kg, ip measured after 24 hrs by H and E staining based analysis; type: functional, organism-based
Pseudomonas aeruginosa [16] = assay: Antibacterial activity against Pseudomonas aeruginosa ATCC 27853 assessed as inhibition of bacterial growth incubated for 18 hrs by microbroth dilution assay; type: functional
Escherichia coli [17] = assay: Additive antibacterial activity against Escherichia coli assessed as fractional inhibitory concentration index in presence of kanamycin incubated for 18 hrs by checkerboard method; type: functional
Cell membrane [18] = assay: Induction of cell membrane permeability in Staphylococcus aureus assessed as bacterial collapse at 2 times MIC by SEM analysis; type: subcellular
Staphylococcus aureus [19] = assay: Synergistic antibacterial activity against Staphylococcus aureus assessed as fractional inhibitory concentration index in presence of ciprofloxacin incubated for 18 hrs by checkerboard method; type: functional
Cell membrane [20] = assay: Induction of cell membrane permeability in Staphylococcus aureus assessed as bacterial dissolution at 2 times MIC measured after 30 mins by SEM analysis; type: subcellular
Escherichia coli [21] = assay: Synergistic antibacterial activity against Escherichia coli assessed as fractional inhibitory concentration index in presence of kanamycin incubated for 18 hrs by checkerboard method; type: functional
[22] = Acute toxicity in male balb/c mouse assessed as hepatocyte necrosis at 45.33 mg/kg, ip by H and E staining based analysis; type: organism-based; settings: in vivo
Cell membrane [23] = assay: Induction of cell membrane permeability in Staphylococcus aureus assessed as bacterial dissolution at 2 times MIC measured after 2 hrs by SEM analysis; type: subcellular
Cell membrane [24] = assay: Induction of cell membrane permeability in Staphylococcus aureus assessed as bacterial aggregation into clusters at 2 times MIC measured after 2 hrs by SEM analysis; type: subcellular
Cell membrane [25] = assay: Induction of Inner membrane permeabilization in Escherichia coli ML-35 ATCC […] at 4 times MIC measured every 5 mins for 120 mins by ONPG dye based assay; type: subcellular
Cell membrane [26] = assay: Induction of cell membrane permeability in Staphylococcus aureus assessed as bacterial aggregation at 2 times MIC measured after 30 mins by SEM analysis; type: subcellular
Escherichia coli [27] = assay: Inhibition of biofilm formation in Escherichia coli ATCC 25922 at 1 uM incubated for 24 hrs by crystal violet staining based analysis; type: functional, organism-based
Cell membrane [28] = assay: Induction of cell membrane permeability in Staphylococcus aureus assessed as bacterial aggregation into breakage at 2 times MIC measured after 30 mins by SEM analysis; type: subcellular
[29] = Acute toxicity in male balb/c mouse assessed as mortality at 25 to 50 mg/kg, ip measured after 50 mins by karber method; type: organism-based; settings: in vivo, dose 25-50 mg/kg
Klebsiella pneumoniae [30] = assay: Bactericidal activity against Klebsiella pneumoniae ATCC 700603 assessed as bacterial eradication by measuring bacterial counts at 1 times MIC measured after 30 mins by Time killing assay relative to control; type: functional; settings: 0.5 h
Cell membrane [31] = assay: Induction of Cytoplasmic membrane depolarization in Staphylococcus aureus at 4 times MIC measured for every 10 mins by DiSC3(5) dye based fluorescence method; type: subcellular
Klebsiella pneumoniae [32] = assay: Bactericidal activity against Klebsiella pneumoniae ATCC 700603 assessed as bacterial eradication by measuring bacterial counts at 2 times MIC measured after 15 mins by Time killing assay relative to control; type: functional; settings: 0.25 h
[33] = Acute toxicity in male balb/c mouse assessed as renal intracellular bleeding at 45.33 mg/kg, ip by H and E staining based analysis; type: organism-based; settings: in vivo
Cell membrane [34] = assay: Induction of cell membrane permeability in Staphylococcus aureus assessed as bacterial aggregation into breakage at 2 times MIC measured after 2 hrs by SEM analysis; type: subcellular
Cell membrane [35] = assay: Induction of Cytoplasmic membrane depolarization in Escherichia coli at 1 to 4 times MIC measured for every 10 mins by DiSC3(5) dye based fluorescence method; type: subcellular
Staphylococcus aureus [36] = assay: Synergistic antibacterial activity against Staphylococcus aureus assessed as fractional inhibitory concentration index in presence of polymyxin B incubated for 18 hrs by checkerboard method; type: functional
Pseudomonas aeruginosa [37] = assay: Synergistic antibacterial activity against Pseudomonas aeruginosa assessed as fractional inhibitory concentration index in presence of polymyxin B incubated for 18 hrs by checkerboard method; type: functional
Cell membrane [38] = assay: Induction of cell membrane permeability in Staphylococcus aureus assessed as bacterial aggregation into clusters at 2 times MIC measured after 30 mins by SEM analysis; type: subcellular
Escherichia coli [39] = assay: Antimicrobial activity against Escherichia coli at 2 times MIC in presence of LPS preincubated for 1 hr followed by bacterial addition and measured after 6 hrs by LPS competitive inhibition assay; type: functional, organism-based
Cell membrane [40] = assay: Induction of cell membrane permeability in Staphylococcus aureus assessed as bacterial adhesion at 2 times MIC by SEM analysis; type: subcellular

N=C(N)NCCC[C@H](NC(=O)CNC(=O)[C@H]1CCCN1C(=O)[C@H](CCCNC(=N)N)NC(=O)[C@H](Cc1ccccc1)NC(=O)[C@H](CCCNC(=N)N)NC(=O)[C@H](Cc1ccccc1)NC(=O)[C@H](CCCNC(=N)N)NC(=O)[C@@H](N)Cc1ccccc1)C(=O)N[C@@H](Cc1ccccc1)C(=O)N[C@@H](CCCNC(=N)N)C(=O)N[C@@H](Cc1ccccc1)C(=O)N[C@@H](CCCNC(=N)N)C(=O)N[C@@H](Cc1ccccc1)C(N)=O
fractional inhibitory concentration index (FICI) (Staphylococcus aureus [1]): 0.563
Activity (Cell membrane [2]): Active
fractional inhibitory concentration index (FICI) (Staphylococcus aureus [3]): 0.625
fractional inhibitory concentration index (FICI) (Klebsiella pneumoniae [4]): 0.188
Activity (Cell membrane [5]): Active
Activity (Pseudomonas aeruginosa [6]): Active
Activity (Klebsiella pneumoniae [7]): Active
Activity [8]: Toxic
Activity (Cell membrane [9]): Active
Activity [10]: Toxic
Activity (Escherichia coli [11]): inactive
Activity [12]: Toxic
Activity (Klebsiella pneumoniae [13]): 100%
Activity (Staphylococcus aureus [14]): Active
Activity (Klebsiella pneumoniae [15]): Active
MIC (Pseudomonas aeruginosa [16]): 4 µM (≈ 7.97 µg/mL)
fractional inhibitory concentration index (FICI) (Escherichia coli [17]): 0.563

N=C(N)NCCC[C@@H](NC(=O)CNC(=O)[C@H]1CCCN1C(=O)[C@@H](CCCNC(=N)N)NC(=O)[C@@H](Cc1ccccc1)NC(=O)[C@@H](CCCNC(=N)N)NC(=O)[C@@H](Cc1ccccc1)NC(=O)[C@@H](CCCNC(=N)N)NC(=O)[C@H](N)Cc1ccccc1)C(=O)N[C@H](Cc1ccccc1)C(=O)N[C@H](CCCNC(=N)N)C(=O)N[C@H](Cc1ccccc1)C(=O)N[C@H](CCCNC(=N)N)C(=O)N[C@H](Cc1ccccc1)C(N)=O
Activity (Cell membrane [18]): Active
fractional inhibitory concentration index (FICI) (Staphylococcus aureus [19]): 0.313
Activity (Cell membrane [20]): Active
fractional inhibitory concentration index (FICI) (Klebsiella pneumoniae [4]): 0.188
fractional inhibitory concentration index (FICI) (Escherichia coli [21]): 0.313
Activity (Pseudomonas aeruginosa [6]): Active
Activity (Klebsiella pneumoniae [7]): Active
Activity [22]: Toxic
Activity (Cell membrane [23]): Active
Activity (Cell membrane [24]): Active
Activity (Cell membrane [25]): Active
Activity (Cell membrane [26]): Active
inhibition (Escherichia coli [27]): Active
Activity (Cell membrane [28]): Active
Activity [29]: Toxic
Activity (Klebsiella pneumoniae [30]): 100%
Activity (Cell membrane [31]): Active; Comparable Depolarization To Valinomycin Was Observed
Activity (Klebsiella pneumoniae [32]): 100%
Activity [33]: Toxic
Activity (Staphylococcus aureus [14]): Active
Activity (Cell membrane [34]): Active
Activity (Klebsiella pneumoniae [15]): Active
Activity (Cell membrane [35]): Active
fractional inhibitory concentration index (FICI) (Staphylococcus aureus [36]): 0.375
fractional inhibitory concentration index (FICI) (Pseudomonas aeruginosa [37]): 0.313
Activity (Cell membrane [38]): Active
Activity (Escherichia coli [39]): inactive
MIC (Pseudomonas aeruginosa [16]): 4 µM (≈ 7.97 µg/mL)
Activity (Cell membrane [40]): Active

— ChEMBL document CHEMBL6087436, “The novel β-hairpin antimicrobial peptide D-G(RF)3 demonstrates exceptional antibacterial efficacy” (Eur J Med Chem, 2025)
